These results are taken from patent US20050009903A1, “CB2-selective cannabinoid analogues” (priority 2003, published 2005).

The target of experiment [1] is T1, CB2 receptor (Homo sapiens, UniProt P34972). Also on record: expressed in transfected cells. As to conditions: previously reported by the applicants (literature refs); listed as JWH-133; read-out: Ki at CB2 receptor; cited from earlier work.
For experiment [2], the target named is T1, CB2 receptor. Description: CB2 assay: displacement of [3H]CP-55,940 from cloned human CB2 receptor preparation (transfected HEK 293 cells). Type of experiment: binding. Also on record: expressed in transfected cells. As to conditions: Table 1; ratio of Ki values.
The subject of the next experiment is glioma tumors. As to conditions: cited from earlier work.
Experiment [3] concerns the target T2, CB1 receptor (Rattus norvegicus, UniProt P20272).
T2 construct: from tissue; host or cells: rat whole brain, P2 membranes
As to conditions: previously reported by the applicants (literature refs); read-out: Ki at CB1 receptor; cited from earlier work.

In experiment [4] the target is T1, CB2 receptor. Description: [35S]GTPγS binding in human CB2 receptor-expressing CHO cell membranes. Type of experiment: biochemical. Also noted: expressed in transfected cells. (GTPγS resists hydrolysis and so accumulates on activated G proteins.)
For experiment [5], the system named is mouse model of multiple sclerosis. As to conditions: cited from earlier work.
The conditions of experiment [6]: blocked by CB2 antagonist SR-144528; cited from earlier work.
The conditions of experiment [7]: blocked by CB2 antagonist SR-144528; cited from earlier work. This is another data set of the same source.
The target in experiment [8] is CB1 receptor (Homo sapiens, UniProt P21554). As to conditions: read-out: Ki CB1 receptor; Hanus et al.; cited from earlier work.
Chain of CB1 receptor (Homo sapiens, UniProt P21554) (P21554 whole entry): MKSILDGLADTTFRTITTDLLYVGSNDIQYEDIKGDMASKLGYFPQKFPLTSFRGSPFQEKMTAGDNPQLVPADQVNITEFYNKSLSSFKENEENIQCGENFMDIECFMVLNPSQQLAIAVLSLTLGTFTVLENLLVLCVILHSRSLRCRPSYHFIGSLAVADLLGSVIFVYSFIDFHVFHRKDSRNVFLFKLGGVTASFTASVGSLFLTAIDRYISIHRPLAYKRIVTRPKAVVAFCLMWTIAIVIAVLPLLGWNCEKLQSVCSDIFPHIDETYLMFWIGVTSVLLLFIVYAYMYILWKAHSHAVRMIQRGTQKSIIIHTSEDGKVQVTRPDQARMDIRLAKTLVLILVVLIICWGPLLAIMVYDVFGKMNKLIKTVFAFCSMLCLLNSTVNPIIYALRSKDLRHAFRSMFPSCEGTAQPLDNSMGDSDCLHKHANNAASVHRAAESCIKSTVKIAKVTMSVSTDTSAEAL
Another experiment has as its system mouse behavioral tetrad. As to conditions: cited from earlier work.

T1 sequence (P34972 whole entry): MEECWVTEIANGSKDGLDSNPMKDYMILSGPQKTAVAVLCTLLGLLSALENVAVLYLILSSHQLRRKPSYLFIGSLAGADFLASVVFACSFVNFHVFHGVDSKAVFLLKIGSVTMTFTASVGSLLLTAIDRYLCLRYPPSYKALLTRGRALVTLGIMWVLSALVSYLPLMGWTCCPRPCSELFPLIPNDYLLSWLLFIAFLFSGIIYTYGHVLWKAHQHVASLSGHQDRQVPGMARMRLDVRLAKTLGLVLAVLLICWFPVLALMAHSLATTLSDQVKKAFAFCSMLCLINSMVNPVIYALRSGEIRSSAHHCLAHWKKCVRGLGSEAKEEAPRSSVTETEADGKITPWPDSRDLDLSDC
T2 sequence (P20272 whole entry): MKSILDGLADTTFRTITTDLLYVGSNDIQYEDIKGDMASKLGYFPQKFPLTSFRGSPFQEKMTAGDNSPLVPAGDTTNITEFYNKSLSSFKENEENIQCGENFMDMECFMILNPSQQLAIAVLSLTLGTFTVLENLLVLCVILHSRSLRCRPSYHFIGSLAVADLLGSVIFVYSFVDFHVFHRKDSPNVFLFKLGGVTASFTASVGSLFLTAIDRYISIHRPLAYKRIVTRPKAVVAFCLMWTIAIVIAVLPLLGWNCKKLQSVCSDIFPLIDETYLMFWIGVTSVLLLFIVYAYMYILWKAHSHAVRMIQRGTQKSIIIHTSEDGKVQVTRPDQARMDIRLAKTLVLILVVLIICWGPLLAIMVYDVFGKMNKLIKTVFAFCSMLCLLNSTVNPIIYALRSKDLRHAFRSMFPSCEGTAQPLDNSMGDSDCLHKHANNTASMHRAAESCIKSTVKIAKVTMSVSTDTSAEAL

One may read the Ki as a measure of affinity in units of concentration, obtained from inhibition or displacement. Usually EC50 stands for the concentration at which the effect is half-maximal. Consider `CCCC(C)(C)c1ccc2c(c1)OC(C)(C)C1CC=C(C)CC21` (stereo not shown) [Compound 3, 3-(1′,1′-Dimethylbutyl)-1-deoxy-Δ^8-THC, reference compound], for which the Ki on CB2 receptor [1] is 3.4 ± 1 nM; at CB1 receptor [3], 677 ± 132 nM. Besides, the “Ratio CB1/CB2” value at CB2 receptor [2] is recorded as 199. In addition, the “in vivo growth of glioma tumors” value with glioma tumors is on record as “inhibits the in vivo growth of glioma tumors”. Moreover, the “Emax relative to CP-55,940” value at CB2 receptor [4] turned out to be 111.5±13.6%. In addition, the “Emax (% CP-55940)” value on CB2 receptor [4] (Table 4, mean ± SEM, per cent relative to 3 μM CP-55,940) was 111.5 ± 13.6 % CP-55940. The “efficacy in the [35S]GTPγS assay relative to CP-55,940” value at CB2 receptor [4] (in words) was “highly efficacious”. In addition, the EC50 at CB2 receptor [4] (read-out: EC50 in the [35S]GTPγS assay) worked out at 4 ± 1 nM. In [5], the reduction of spasticity entry is “effective in reducing spasticity”.
In the case of `CCCCCCC(C)(C)c1cc(OC)c([C@@H]2C=C(CO)[C@@H]3C[C@H]2C3(C)C)c(OC)c1` [HU-308], the peripheral analgesic activity entry in [6] is “shows peripheral analgesic activity”. Also, the “effect on blood pressure” value in [7] is “reduces blood pressure”. In addition, the Ki on CB1 receptor [8] was above 10000 nM. The “activity in the mouse behavioral tetrad” value in the experiment with mouse behavioral tetrad was “inactive”.
